Laboratory results as given in patent US20230085307A1, “PYRIDAZINONE COMPOUND AND HERBICIDE” (NISSAN CHEMICAL CORPORATION, priority 2019, published 2023).

Experiments:
velvetleaf = assay: Test Example 4: herbicidal effect by soil treatment (Table 19, symbol M); assay type: in vivo, velvetleaf (Abutilon theophrasti); details: amount of applied herbicide 320 g/ha
Outline: (§1)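 Herbicidal effect was rated 3 weeks after treatment, using the scoring criteria of an earlier test. The compound, formulated as an emulsion and diluted in water to a set herbicide amount, had been sprayed uniformly on soil over freshly sown seeds. Growth took place in a greenhouse at 25° C. to 30° C.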

windgrass [1] = assay: Test Example 4: herbicidal effect by soil treatment (Table 19, symbol L); assay type: in vivo, windgrass (Apera spica-venti); details: amount of applied herbicide 320 g/ha
Outline: as §1

lambsquarters [2] = assay: Test Example 4: herbicidal effect by soil treatment (Table 19, symbol O); assay type: in vivo, lambsquarters (Chenopodium album); details: amount of applied herbicide 320 g/ha
Outline: as §1

persian speedwell = assay: Test Example 5: herbicidal effect by foliage application, plastic box (Table 20, symbol R); assay type: in vivo, Persian speedwell (Veronica persica); details: foliage application, 320 g/ha, three weeks after application
Outline: (§2)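 Foliar spray test: emulsion formulation diluted in water to a set application rate, sprayed onto 14-day-old plants raised in diluvial soil at 25° C to 30° C under glass. Both herbicidal effect and crop effect rated visually three weeks later.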

false cleavers = assay: Test Example 4: herbicidal effect by soil treatment (Table 19, symbol Q); assay type: in vivo, false cleavers (Galium spurium); details: amount of applied herbicide 320 g/ha
Outline: as §1

chickweed = assay: Test Example 5: herbicidal effect by foliage application, plastic box (Table 20, symbol P); assay type: in vivo, common chickweed (Stellaria media); details: foliage application, 320 g/ha, three weeks after application
Outline: as §2

southern crabgrass [3] = assay: Test Example 5: herbicidal effect by foliage application, plastic box (Table 20, symbol F); assay type: in vivo, southern crabgrass (Digitaria ciliaris); details: foliage application, 320 g/ha, three weeks after application
Outline: as §2

rice flat sedge = assay: Test Example 3: herbicidal effect by foliage application, Wagner pot (Table 18, symbol E); assay type: in vivo, rice flat sedge (Cyperus iria)
Outline: (§3)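 Plants were sown in alluvial soil held under 0.1–0.5 cm standing water and grown 14 days in a greenhouse at 25–30 °C. An emulsifiable formulation, water-diluted to the set dose, was then sprayed onto the foliage, and effects were scored three weeks later using previously defined criteria.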

oval-leafed pondweed [4] = assay: Test Example 1: herbicidal activity, application before weed generation under submerged conditions (Table 16, symbol C); assay type: in vivo, oval-leafed pondweed (Monochoria vaginalis); details: amount of applied herbicide 320 g/ha
Outline: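 Alluvial soil was flooded to 4 cm depth, weed seeds were sown mixed and 2.5-leaf rice seedlings were transplanted. On sowing day, the compound's emulsion, diluted in water to a set dose, was applied to the water surface. Plants grew at 25–30 °C and were scored 0–5 after three weeks.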

windgrass [5] = assay: Test Example 5: herbicidal effect by foliage application, plastic box (Table 20, symbol L); assay type: in vivo, windgrass (Apera spica-venti); details: foliage application, 320 g/ha, three weeks after application
Outline: as §2

lambsquarters [6] = assay: Test Example 5: herbicidal effect by foliage application, plastic box (Table 20, symbol O); assay type: in vivo, lambsquarters (Chenopodium album); details: foliage application, 320 g/ha, three weeks after application
Outline: as §2

green foxtail = assay: Test Example 5: herbicidal effect by foliage application, plastic box (Table 20, symbol G); assay type: in vivo, green foxtail (Setaria viridis); details: foliage application, 320 g/ha, three weeks after application
Outline: as §2

oval-leafed pondweed [7] = assay: Test Example 2: herbicidal activity, application during weed generation under submerged conditions (Table 17, symbol C); assay type: in vivo, oval-leafed pondweed (Monochoria vaginalis); details: AAH 320 g/ha; application during weed generation, submerged conditions
Outline: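 Steps: fill Wagner pots with alluvial soil; add water to give 4 cm depth; sow the species mixed; grow under glass at 25–30° C.; at 1–2 leaves apply water-diluted emulsion formulation to the water surface at a fixed herbicide amount; score after 3 weeks.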

Chinese sprangletop = assay: Test Example 3: herbicidal effect by foliage application, Wagner pot (Table 18, symbol D); assay type: in vivo, chinese sprangletop (Leptochloa chinensis)
Outline: as §3

redroot pigweed = assay: Test Example 4: herbicidal effect by soil treatment (Table 19, symbol N); assay type: in vivo, redroot pigweed (Amaranthus retroflexus); details: amount of applied herbicide 320 g/ha
Outline: as §1

barnyard grass = assay: Test Example 5: herbicidal effect by foliage application, plastic box (Table 20, symbol H); assay type: in vivo, barnyard grass (Echinochloa crus-galli); details: foliage application, 320 g/ha, three weeks after application
Outline: as §2

southern crabgrass [8] = assay: Test Example 4: herbicidal effect by soil treatment (Table 19, symbol F); assay type: in vivo, southern crabgrass (Digitaria ciliaris); details: amount of applied herbicide 320 g/ha
Outline: as §1

[9] = amount of applied herbicide 320 g/ha

CCOc1ccc(-c2sc3cc(OC)ccc3c2-c2c(O)c(C)nn(C)c2=O)cc1 [3-072]
M: velvetleaf, herbicidal effect grade (velvetleaf): 0 (Herbicidal rate of 5% or less (almost no effect)) | L: windgrass, herbicidal effect grade (windgrass [1]): 0 (Herbicidal rate of 5% or less (almost no effect)) | O: lambsquarters, herbicidal effect grade (lambsquarters [2]): 2 (Herbicidal rate of 20% or more and less than 40%) | R: persian speedwell, herbicidal effect grade (persian speedwell): 5 (Herbicidal rate of 90% or more (almost completely withered)) | Q: false cleavers, herbicidal effect grade (false cleavers): 1 (Herbicidal rate of 5% or more and less than 20%) | P: chickweed, herbicidal effect grade (chickweed): 5 (Herbicidal rate of 90% or more (almost completely withered)) | F: southern crabgrass, herbicidal effect grade (southern crabgrass [3]): 0 (Herbicidal rate of 5% or less (almost no effect)) | herbicidal effect on rice flat sedge (E) (rice flat sedge; 320 g/ha): 4 (Herbicidal rate of 70% or more and less than 90%) | Herbicidal effect, C: oval-leafed pondweed (oval-leafed pondweed [4]): 4 (Herbicidal rate of 70% or more and less than 90%) | L: windgrass, herbicidal effect grade (windgrass [5]): 0 (Herbicidal rate of 5% or less (almost no effect)) | O: lambsquarters, herbicidal effect grade (lambsquarters [6]): 5 (Herbicidal rate of 90% or more (almost completely withered)) | G: green foxtail, herbicidal effect grade (green foxtail): 3 (Herbicidal rate of 40% or more and less than 70%) | herbicidal effect rating, C: oval-leafed pondweed (oval-leafed pondweed [7]): 3 (Herbicidal rate of 40% or more and less than 70%) | herbicidal effect on Chinese sprangletop (D) (Chinese sprangletop; 320 g/ha): 3 (Herbicidal rate of 40% or more and less than 70%) | N: redroot pigweed, herbicidal effect grade (redroot pigweed): 2 (Herbicidal rate of 20% or more and less than 40%) | H: barnyard grass, herbicidal effect grade (barnyard grass): 3 (Herbicidal rate of 40% or more and less than 70%) | F: southern crabgrass, herbicidal effect grade (southern crabgrass [8]): 0 (Herbicidal rate of 5% or less (almost no effect))

Cc1nn(C)c(=O)c(-c2c(-c3ccc4c(c3)OCCO4)oc3ccccc23)c1O [8-002]
M: velvetleaf, herbicidal effect grade (velvetleaf): 0 (Herbicidal rate of 5% or less (almost no effect)) | L: windgrass, herbicidal effect grade (windgrass [1]): 0 (Herbicidal rate of 5% or less (almost no effect)) | O: lambsquarters, herbicidal effect grade (lambsquarters [2]): 0 (Herbicidal rate of 5% or less (almost no effect)) | herbicidal effect on persian speedwell (R) (persian speedwell): 5 (Herbicidal rate of 90% or more (almost completely withered)) | Q: false cleavers, herbicidal effect grade (false cleavers): 0 (Herbicidal rate of 5% or less (almost no effect)) | herbicidal effect on southern crabgrass (F) (southern crabgrass [3]): 1 (Herbicidal rate of 5% or more and less than 20%) | Herbicidal effect on E (rice flat sedge), foliage application (rice flat sedge; [9]): 4 (Herbicidal rate of 70% or more and less than 90%) | Herbicidal effect, C: oval-leafed pondweed (oval-leafed pondweed [4]): 4 (Herbicidal rate of 70% or more and less than 90%) | herbicidal effect on windgrass (L) (windgrass [5]): 1 (Herbicidal rate of 5% or more and less than 20%) | herbicidal effect on lambsquarters (O) (lambsquarters [6]): 0 (Herbicidal rate of 5% or less (almost no effect)) | herbicidal effect on green foxtail (G) (green foxtail): 3 (Herbicidal rate of 40% or more and less than 70%) | herbicidal effect rating, C: oval-leafed pondweed (oval-leafed pondweed [7]): 5 (Herbicidal rate of 90% or more (almost completely withered)) | Herbicidal effect on D (Chinese sprangletop), foliage application (Chinese sprangletop; [9]): 3 (Herbicidal rate of 40% or more and less than 70%) | N: redroot pigweed, herbicidal effect grade (redroot pigweed): 2 (Herbicidal rate of 20% or more and less than 40%) | herbicidal effect on barnyard grass (H) (barnyard grass): 4 (Herbicidal rate of 70% or more and less than 90%) | F: southern crabgrass, herbicidal effect grade (southern crabgrass [8]): 3 (Herbicidal rate of 40% or more and less than 70%)
